Measured values: patent US6989375B2, “Enhanced expression of transgenes” (priority 1996, dated 2006)

Legend:
H460 cells [1] = test: β-gal expression by X-gal staining after Ad/CMV/β-gal infection of CDDP-treated cells; format: cell-based, human
Description: Gene Delivery Protocol: In vitro gene delivery was performed by incubating cells in six-well plates (Falcon Plastics, Lincoln Park, N.J.) for two hours with Adv/CMV/β-gal in appropriate medium supplemented with 2% FCS. The multiplicity of infection (MOI: number of viral particles per target cell) was based on cell counts of untreated wells. Fresh, complete medium with the appropriate concentration of FCS was then added to the wells at the end of the infection period and cells were then incubated for 20 hours at 37° C., 5% CO2. After washing the cells with ice cold PBS, the cells were fixed with ice-cold 1.25% glutaraldehyde and stained with X-gal (5-bromo-4-chloro-3-indolyl-β-d-galactoside; Gibco BRL) as previously described (MacGregor et al., 1987). The transduction efficiency by Adv/CMV/β-gal was determined by the percentage of positive stained cells (blue) for β-galactosidase activity (1000 cells counted per well).
Time Course and Dose Response: To determine the time course of enhancement, H1299 and H460 cells were seeded in 6-well plates (2×10^5 cells/2 mls/well). After an overnight incubation period (37° C., 5% CO2), the initial medium was replaced with freshly prepared media (2 ml) containing 0.062 μg/ml CDDP (Sigma Chemicals, St. Louis, Mo.) (CDDP was prepared fresh by dissolving in distilled water) and the cells were then incubated for 24 hours at 37° C., with 5% CO2. CDDP-treated cells were then washed twice with PBS and subsequently infected with Ad/CMV/β-gal (MOI=1 for H1299 and MOI=5 for H460) on days 0, 1, 2, 3, 4, 5 or 6 following CDDP removal, to determine the time point at which maximal enhancement of expression was occurring. To establish the dose of CDDP needed to produce maximum enhancement, the cells were treated with different concentrations of CDDP (serial, 1:4 dilutions, ranging from 4 μg/ml to 0.0002 μg/ml, 5 ml per 60 mm dish) for 24 hours and subsequently incubated with Ad/CMV/β-gal 48 hours after removal of CDDP. […]

[2] = test system: subcutaneous H1299 tumors; test: In vivo CDDP-induced enhancement of β-gal gene expression in subcutaneous tumors; design: species or system nude mice
Description: Subcutaneous (SC) tumor nodules were created by injecting 1×10^7 H1299 cells suspended in 100 μl of PBS into the dorsal flank SC tissue of nude mice (nu/nu, Charles River, Wilmington, Mass.) that had received 350 Rads of total body irradiation. Tumors, approximately 250 mm^3 in size, consistently formed within 3 to 4 weeks of tumor cell implantation. Intratumoral injections of Ad/CMV/β-gal (5×10^8 viral particles) were done at 0, 2, 4, and 6 days following an intraperitoneal injection of CDDP (5 μg/g body weight in 100 μl of PBS) or PBS only (n=4 per groups). The tumors were excised 48 hours after adenovirus injection, washed in cold PBS, embedded in tissue freezing medium (Fisher Scientific, Houston, Tex.) and snap-frozen by immersion in 2-methylbutane which was chilled over liquid nitrogen. Serial frozen sections (8μ, thick) of the tumor mass obtained at 2-mm intervals were fixed and stained with X-gal as previously described (Ponder et al., 1991) and then counterstained with nuclear fast red (PolyScientific, Bay Shore, N.Y.). Quantitative assessment of β-gal gene expression (blue cells) was determined by digital image analysis (Samba 4000, Immuno Software, Version 3.0; Image Products International, Inc., Chantilly, Va.) for each tumor section. In vivo β-gal gene transduction of tumor masses was calculated as the mean of the percentage of blue cells per surface area of representative sections. Tumor-bearing animals receiving intraperitoneal injection of PBS and subsequent intratumoral injection of Ad/CMV/β-gal at identical time points, served as controls. The magnitude of enhancement was calculated by dividing values from CDDP and Ad/CMV/β-gal treated tumors by values from Ad/CMV/β-gal control treated tumors.

[3] = test system: CDDP-resistant ovarian carcinoma cells (2008); conditions: CDDP four to six weeks prior (in vitro) or once one week prior (in vivo); cited from earlier work
H460 cells [4] = test: Cell growth after 24-hour incubation with CDDP; format: cell-based, human
H1299 cells = test: In situ TUNEL assay for apoptosis; format: cell-based, human; conditions: CDDP = prior CDDP treatment, Ad/CMV/p53 = not exposed to CDDP
Description: CDDP-treated or control H1299 cells were fixed in 50% acetone/ethanol for 20 minutes at −20° C. 12 hrs and 24 hrs after transfection with Adv/CMV/p53 (MOI=5). In situ TdT (terminal deoxynucleotidyl transferase)-mediated dUTP-biotin nick end-labeling (TUNEL) assay was performed according to the procedure described elsewhere (Gavrieli et al., 1992). H1299 cells used as positive controls were treated with DNAse I (Gibco BRL, Gaithersburg, Md.), for 1 hr at 37° C. (50 μg/ml in 10 mM Tris-HCI pH=7.5; 140 mM sodium cacodylate, 4 mM MgCl2, 10 mM dithiothreitol).

N.N.[Cl][Pt][Cl] [CDDP, cis-dichlorodimminocisplatin]
CDDP concentration at which maximal enhancement of β-gal gene expression occurred (H460 cells [1]; 24 h exposure, infected 48 hours after CDDP removal): 0.062 µg/mL
Time of gene transfer after drug treatment for maximal enhancement (H460 cells [1]; CDDP 0.062 μg/ml): about 48 hours
Enhancement of β-gal gene expression (H460 cells [1]; CDDP at 0.0039 and 1 μg/ml, infected 48 hours after CDDP removal): also an enhancement
Percentage of positively stained cells in tumors ([2]; Ad/CMV/β-gal injected 2 days after CDDP 5 μg/g ip (CDDP) or PBS (Ad/CMV/β-gal control)): 46.0±4.3%
Percentage of positively stained cells in tumors ([2]; Ad/CMV/β-gal injected 4 days after CDDP 5 μg/g ip (CDDP) or PBS (Ad/CMV/β-gal control)): 70.2±11%
Percentage of positively stained cells in tumors ([2]; Ad/CMV/β-gal injected 6 days after CDDP 5 μg/g ip (CDDP) or PBS (Ad/CMV/β-gal control)): 23.4±5%
Change in β-gal gene expression ([2]; CDDP 5 μg/g ip and Ad/CMV/β-gal concurrently administered (day 0)): no change
Fold increase of positively stained cells over respective control ([2]; gene transfer 2 days after CDDP administration): 1.6 fold
Fold increase of positively stained cells over respective control ([2]; gene transfer 4 days after CDDP administration): 2.8 fold
Gene transduction after CDDP exposure prior to liposome-mediated gene transfer [3]: enhanced gene transduction
Cell growth, initial response (H460 cells [4]; CDDP at 1 and 4 μg/ml for 24 hours, cells viable by trypan blue exclusion): significant depression of growth to complete inhibition of proliferation
Cell growth compared to control cell populations (H460 cells [4]; CDDP concentrations lower than 0.25 μg/ml): remained unchanged
Apoptosis (TUNEL-positive cells) (H1299 cells; 12 hrs after Ad/CMV/p53 transfection (MOI=5)): much higher frequency than in untreated cells
Apoptosis (TUNEL-positive cells) (H1299 cells; 24 hrs after Ad/CMV/p53 transfection (MOI=5)): almost all CDDP-treated cells stained positive for DNA fragmentation
